Measurements taken from the CheMixHub drug solubility set.

Test: xn = mol fraction of the nth substance listed, in the solute-free solvent

O=C(O)C1CSCN1 (stereo unspecified) + O + CC#N
solubility (g/100 g solution)
Details	x2 = 0.1	x2 = 0.2	x2 = 0.3	x2 = 0.4	x2 = 0.5	x2 = 0.6	x2 = 0.7	x2 = 0.8	x2 = 0.9
283.15 K	0.0141	0.0241	0.0323	0.084	0.183	0.365	0.573	0.965	1.4
293.15 K	0.0189	0.0303	0.0491	0.106	0.242	0.433	0.729	1.24	1.89
303.15 K	0.0244	0.0416	0.0643	0.129	0.312	0.533	0.901	1.58	2.4
313.15 K	0.0292	0.0548	0.0787	0.159	0.392	0.679	1.17	2.04	3.06
323.15 K	0.0343	0.0734	0.0978	0.192	0.492	0.805	1.52	2.62	3.94

CCCCOc1ccc(C(=O)CCN2CCCCC2)cc1.Cl + CCO + CCOC(C)=O
solubility (g/100 g solution)
Details	278.15 K	283.15 K	288.15 K	293.15 K	298.15 K	303.15 K	308.15 K	313.15 K	318.15 K	323.15 K
x2 = 0.1	4.4	5.22	6.12	7.23	8.43	9.93	11.7	13.6	15.8	18.4
x2 = 0.2	6.73	7.77	8.92	10.3	11.8	13.6	15.6	17.8	20.4	23.2
x2 = 0.3	9.22	10.6	12	13.6	15.3	17.3	19.6	22	24.8	27.7
x2 = 0.4	11.9	13.4	15.1	17	18.9	21.2	23.7	26.4	29.3	32.4
x2 = 0.5	14.7	16.5	18.3	20.4	22.6	25.2	27.9	30.8	33.9	37
x2 = 0.6	17.6	19.7	21.7	24.1	26.5	29.3	32.2	35.2	38.4	41.7
x2 = 0.7	20.8	23.2	25.4	28	30.6	33.5	36.6	39.8	43.1	46.5
x2 = 0.8	24.2	26.8	29.2	32	34.7	37.8	41	44.2	47.6	51
x2 = 0.9	27.9	30.7	33.2	36.1	39	42.2	45.5	48.8	52.2	55.5

CC(=O)OC(c1ccccc1)C(Cl)(Cl)Cl (stereo unspecified) + CC(=O)O + O
solubility (g/100 g solution)
Details	288.15 K	293.15 K	298.15 K	303.15 K	308.15 K	313.15 K	318.15 K	323.15 K	328.15 K
x2 = 0.4	0.229	0.34	0.495	0.65	0.966	1.43	1.81	2.64	3.12
x2 = 0.5	0.758	0.967	1.23	1.62	2.27	2.97	3.85	5.28	7.16
x2 = 0.6	1.45	2.06	2.67	3.47	4.47	5.57	7.52	10.1	13.4
x2 = 0.7	2.88	3.73	4.74	6.03	7.75	9.86	12.5	16.9	23.4
x2 = 0.8	4.78	6.15	7.58	9.47	12	15.1	19.5	25.6	33.9
x2 = 0.9	7.43	9.03	10.9	13.5	17	21.2	26.5	33.8	42.7

Nc1cncc(Cl)n1 + CC(O)CO + O
solubility (g/100 g solution)
Details	278.15 K	283.15 K	288.15 K	293.15 K	298.15 K	303.15 K	308.15 K	313.15 K	318.15 K	323.15 K
x2 = 0.02564	–	–	–	–	–	–	–	–	–	0.0333
x2 = 0.0559	–	–	–	–	–	–	–	–	–	0.0456
x2 = 0.09214	0.064	0.0784	0.093	0.112	0.133	0.158	0.185	0.216	0.25	0.292
x2 = 0.1364	0.0887	0.109	0.129	0.156	0.184	0.218	0.255	0.297	0.343	0.401
x2 = 0.1915	0.112	0.137	0.166	0.2	0.239	0.281	0.33	0.384	0.445	0.521
x2 = 0.2621	0.135	0.168	0.206	0.251	0.298	0.351	0.413	0.48	0.555	0.649
x2 = 0.3559	0.156	0.196	0.237	0.29	0.345	0.406	0.479	0.557	0.644	0.757
x2 = 0.4865	0.159	0.205	0.253	0.308	0.371	0.435	0.512	0.599	0.694	0.815
x2 = 0.6806	0.159	0.201	0.247	0.307	0.365	0.431	0.508	0.593	0.688	0.814

Oc1ccc(Cl)c2cccnc12 + CCCOC(C)=O + CCO
solubility (g/100 g solution)
Details	278.15 K	283.15 K	288.15 K	293.15 K	298.15 K	303.15 K	308.15 K	313.15 K	318.15 K	323.15 K
x2 = 0.1013	1.48	1.74	2.02	2.4	2.82	3.28	3.89	4.6	5.52	6.43
x2 = 0.2214	1.97	2.29	2.69	3.2	3.76	4.43	5.18	6.1	7.46	8.81
x2 = 0.4035	2.41	2.81	3.3	3.87	4.53	5.41	6.43	7.55	8.8	10.5
x2 = 0.6434	2.74	3.26	3.83	4.52	5.3	6.25	7.27	8.56	9.99	11.7
